# Reference: patent US20040200144A1, “Plant growth regulator and a method of producing the regulator” (Dainichiseika Color & Chemicals Mfg. Co., Ltd., priority 2003, published 2004)
# How the values were obtained:
# [1] = test system: carrot young plants; assay: Dwarfing test of carrot young plant; format: in vivo; conditions: for Plant Height / Dwarfing Rate: 5 ml per cell on 5th day, measured 27th day; for Dwarfing Rate: vs comparative group
# Experimental: Dwarfing rate (%)=[(the plant height of the comparative group)−(the plant height of an addition group)/the plant height of the comparative group]×100
# 50 g of sodium tripolyphosphate was dissolved in 400 ml of distilled water at 80° C., 17.5 g of cinnamic acid was added to the sodium tripolyphosphate solution and dissolved by stirring, the resultant solution was diluted with distilled water until the total volume of solution was 500 ml, and thus 3.5% cinnamic acid aqueous solution (pH 6.5) was prepared. The aqueous solution was further diluted with distilled water 70 times or 17.5 times, and 0.05% cinnamic acid aqueous solution and 0.2% cinnamic acid aqueous solution were prepared, respectively.
# Nursery soil for house use was filled into paper joint pots (each with 24 cells: 34×43×50 mm/cell), water was sufficiently given to the soil, and seeds of carrots were sowed. After seeding, the pot was placed in the same greenhouse as described above to sprout. Subsequently, on the 5th day, the cinnamic aqueous acid solutions were added to the nursery soil in the joint pots. One of the joint pots (24 cells) was prepared as a 0.05% cinnamic acid aqueous solution addition group, and 5 ml of the 0.05% cinnamic acid aqueous solution was added to the nursery soil of each cell. Another one of the join pots was prepared as a 0.2% cinnamic acid aqueous solution addition group, and 5 ml of the 0.2% cinnamic acid aqueous solution was added to the nursery soil of each cell. The other one of the joint pots was prepared as a comparative group in which 5 ml of water is added to each cell, instead of the cinnamic acid aqueous solution. Subsequently, the cultivation of carrot young plants in each group was continued under general conditions. On the 27th day, the heights of young plants in each group were measured, the dwarfing rate (%) was calculated, and the dwarfing effect of cinnamic acid aqueous solution on carrot young plants was examined. […]
# [2] = test system: melon young plants; assay: Dwarfing test of melon young plant; format: in vivo; conditions: for Plant Height / Dwarfing Rate: 5 ml per cell on 7th day, measured 25th day; for Dwarfing Rate: vs comparative group
# Experimental: After seeding, the pot was placed in the same greenhouse as described above to sprout. Subsequently, on the 5th day, the cinnamic aqueous acid solutions were added to the nursery soil in the joint pots. One of the joint pots (24 cells) was prepared as a 0.05% cinnamic acid aqueous solution addition group, and 5 ml of the 0.05% cinnamic acid aqueous solution was added to the nursery soil of each cell. Another one of the join pots was prepared as a 0.2% cinnamic acid aqueous solution addition group, and 5 ml of the 0.2% cinnamic acid aqueous solution was added to the nursery soil of each cell. […] Subsequently, the cultivation of carrot young plants in each group was continued under general conditions. On the 27th day, the heights of young plants in each group were measured, the dwarfing rate (%) was calculated, and the dwarfing effect of cinnamic acid aqueous solution on carrot young plants was examined. From the results in Table 5, it became evident that the 0.05% and 0.2% cinnamic acid aqueous solutions are effective in dwarfing carrot young plants. In the same way as in Example 5 except that seeds of cauliflower were sowed, the cinnamic acid solutions were added to the nursery soil in the joint pot on the 4th day, and that heights of young plants in each group were measured on the 20th day, the dwarfing effect of cinnamic acid aqueous solution on cauliflower young plants was examined. From the results in Table 12, it became evident that the cinnamic acid aqueous solutions are effective in dwarfing cauliflower young plants. In the same way as in Example 12 except that seeds of tomato were sowed, and that the cinnamic acid solutions were added to the nursery soil of the joint pot on the 7th day, the dwarfing effect of cinnamic acid aqueous solution on tomato young plants was examined. From the results in Table 17, it became evident that the cinnamic acid aqueous solutions are effective in dwarfing tomato young plants. In the same way as in Example 17 except that seeds of melon were sowed, and that plant heights were measured on the 25th day, the dwarfing effect of cinnamic acid aqueous solution on melon young plants was examined. From the results in Table 25, it became evident that the cinnamic acid aqueous solutions are effective in dwarfing melon young plants.
smiles,measurement,setting,value
O=C(O)C=Cc1ccccc1 [cinnamic acid],Plant Height,[1]; 0.05% aqueous solution,7.9 cm
same,Dwarfing Rate,[1]; 0.05% aqueous solution,7.1%
same,Plant Height,[1]; 0.2% aqueous solution,6.9 cm
same,Dwarfing Rate,[1]; 0.2% aqueous solution,18.8%
same,dwarfing effect,"[1]; carrot young plants, 0.05% and 0.2% aqueous solutions",effective
same,Plant Height,[2]; 0.05% aqueous solution,6.3 cm
same,Dwarfing Rate,[2]; 0.05% aqueous solution,4.5%
same,Plant Height,[2]; 0.2% aqueous solution,4.1 cm
same,Dwarfing Rate,[2]; 0.2% aqueous solution,37.9%
same,dwarfing effect,"[2]; melon young plants, 0.05% and 0.2% aqueous solutions",effective
